Test results as given in ChEMBL document CHEMBL1130914, “Thromboxane modulating agents. 4. Design and synthesis of 3-(2-[[(4-chlorophenyl)sulfonyl]-amino]ethyl)benzenepropanoic acid derivatives as potent thromboxane receptor antagonists” (Bioorg Med Chem Lett, 1998).

How the values were obtained:
Thromboxane A2 receptor = molecular target: T1, Thromboxane A2 receptor (Rattus norvegicus, UniProt P34978); test: In vitro Thromboxane A2 (TXA2) receptor antagonism was tested by its ability to inhibit the contraction of rat aorta induced by the stable thromboxane agonist U-46,619; format: functional, tissue-based; conditions: read-out: pA2 (converted)
T1 sequence (P34978 whole entry): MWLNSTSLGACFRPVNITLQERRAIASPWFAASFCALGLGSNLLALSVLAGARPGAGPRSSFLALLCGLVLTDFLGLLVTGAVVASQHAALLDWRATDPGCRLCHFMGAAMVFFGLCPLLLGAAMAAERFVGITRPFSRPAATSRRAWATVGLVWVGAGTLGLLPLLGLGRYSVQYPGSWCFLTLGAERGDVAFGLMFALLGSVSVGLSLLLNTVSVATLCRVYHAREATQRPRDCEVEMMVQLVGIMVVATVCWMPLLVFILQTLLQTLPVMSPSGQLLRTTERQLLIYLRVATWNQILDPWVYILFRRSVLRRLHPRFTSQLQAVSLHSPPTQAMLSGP

[1] = tested on: Thromboxane A2 receptor (Canis lupus familiaris); test: Tested for the peroral dose required to maintain complete thromboxane receptor antagonism for > 12 hours.
[2] = tested on: Thromboxane A2 receptor (Canis lupus familiaris); test: Tested for peroral dose required to cause complete blockade of the response to the thromboxane receptor agonist U-46,619 (1 uM) for 48 hours
Thromboxane-A synthase = molecular target: T2, Thromboxane-A synthase (Homo sapiens, UniProt P24557); test: Inhibitory activity against Thromboxane A2 synthase from human platelet microsomes.
T2 sequence (P24557 whole entry): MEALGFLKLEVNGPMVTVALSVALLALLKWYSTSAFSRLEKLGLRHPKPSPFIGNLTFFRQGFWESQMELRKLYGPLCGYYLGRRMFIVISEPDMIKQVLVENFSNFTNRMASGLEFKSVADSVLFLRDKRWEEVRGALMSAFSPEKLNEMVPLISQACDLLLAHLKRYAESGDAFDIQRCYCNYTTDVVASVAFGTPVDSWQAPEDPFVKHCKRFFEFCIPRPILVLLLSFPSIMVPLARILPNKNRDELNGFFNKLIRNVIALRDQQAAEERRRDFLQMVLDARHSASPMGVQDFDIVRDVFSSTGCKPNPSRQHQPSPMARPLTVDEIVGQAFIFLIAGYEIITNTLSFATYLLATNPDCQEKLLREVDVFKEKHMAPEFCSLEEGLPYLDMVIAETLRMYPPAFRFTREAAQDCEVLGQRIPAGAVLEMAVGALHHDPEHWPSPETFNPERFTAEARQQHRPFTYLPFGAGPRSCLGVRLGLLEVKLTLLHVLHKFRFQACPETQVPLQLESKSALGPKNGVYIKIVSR

SMILES | Kb (Thromboxane A2 receptor) | further results
CS(=O)(=O)c1ccc(Cc2cc(CCNS(=O)(=O)c3ccc(Cl)cc3)cc(CCC(=O)O)c2)cc1 | 63.1 pM | 
O=C(O)CCc1cc(CCNS(=O)(=O)c2ccc(Cl)cc2)cc(Cc2ccccc2)c1 | 15.8 pM | 
COc1ccccc1Cc1cc(CCNS(=O)(=O)c2ccc(Cl)cc2)cc(CCC(=O)O)c1 | 63.1 pM | 
O=C(O)CCc1cc(CCNS(=O)(=O)c2ccc(Cl)cc2)cc(C(O)c2ccc(F)cc2)c1 (stereo not drawn) | 200 pM | 
CC(c1ccc(F)cc1)c1cc(CCNS(=O)(=O)c2ccc(Cl)cc2)cc(CCC(=O)O)c1 (stereo not drawn) | 3.98 pM | 
N#Cc1ccc(C(=O)c2cc(CCNS(=O)(=O)c3ccc(Cl)cc3)cc(CCC(=O)O)c2)cc1 | 39.8 pM | 
O=C(O)CCc1cccc(CCNS(=O)(=O)c2ccc(Cl)cc2)c1 | 2000 pM | 
CS(=O)(=O)c1ccc(C(=O)c2cc(CCNS(=O)(=O)c3ccc(Cl)cc3)cc(CCC(=O)O)c2)cc1 | 316 pM | 
O=C(O)CCc1cc(CCNS(=O)(=O)c2ccc(Cl)cc2)cc(Cc2cccnc2)c1 | 398 pM | 
O=C(O)CCc1cc(CCNS(=O)(=O)c2ccc(Cl)cc2)cc(Cc2ccc(F)cc2)c1 | 25.1 pM | Activity [1]: 0.1 mg/kg; Activity [2]: 1 mg/kg
O=C(O)CCc1cc(CCNS(=O)(=O)c2ccc(Cl)cc2)cc(C(=O)c2ccc(F)cc2)c1 | 100 pM | 
O=C(O)CCc1cc(CCNS(=O)(=O)c2ccc(Cl)cc2)cc(Cc2ccncc2)c1 | 2.51 pM | IC50 (Thromboxane-A synthase): 47000 pM
COc1ccc(C(=O)c2cc(CCNS(=O)(=O)c3ccc(Cl)cc3)cc(CCC(=O)O)c2)cc1 | 25.1 pM | 
COc1ccc(Cc2cc(CCNS(=O)(=O)c3ccc(Cl)cc3)cc(CCC(=O)O)c2)cc1 | 3.98 pM | 
O=C(O)CCc1cc(CCNS(=O)(=O)c2ccc(Cl)cc2)cc(Cc2cccc(F)c2)c1 | 79.4 pM | 
